Laboratory results as given in patent publication US20190175560A1, “MEBENDAZOLE CANCER THERAPIES AND METHODS OF USE” (Shepherd Therapeutics, Inc., priority 2017, published 2019).
pIC50: −log10 of the molar value.

Experiments:
[1] = tested on: A2780cis cells; test: MBZ cell viability IC50 (CellTiter Glo); type: cell-based; settings: 72 hours
Procedure: (§1) The effect of mebendazole administration on cell lines derived from exemplary cancers was tested. One approach to determining the effectiveness of mebendazole in the treatment of cancer comprises in vitro testing. In this approach, cancer cell lines representative of the cancers of the disclosure are cultured in vitro according to standard techniques (see, for example, Human Cell Culture Protocols, Third Edition, […] R. D. Hughes, Editors, Humana Press, 2012), and increasing concentrations of mebendazole are administered to determine the IC50 value. As used herein, the term “IC50 value” refers to the concentration of a compound (for example mebendazole) wherein the response to that compound (such as inhibited cellular viability) is reduced by half. The IC50 is thus a measure of the effectiveness of a compound in inhibiting a biological process. […] Based on this biology, several rare cancer tumor cell lines including neuroblastoma, rhabdomyosarcoma and Ewing sarcoma were analyzed for sensitivity to MBZ treatment in vitro. […] In all cases, including those described below, the viable cells were determined using the CellTiter Glo® kit and an IC50 curve was generated using the PRISM software. […] FIGS. 1 and 2 show the effect of mebendazole on 3 ovarian cancer derived cell lines, A2780cis, SKOV-3 and TOV-112D at 24 hours, 48 hours and 72 hours. […] Percent cell viability is shown on the Y-axis, from 0 to 150 in units of 25. A2780cis cell data are represented by filled circles and a dotted line. SKOV-3 cell data are represented by squares and a solid line. TOV-112D cell data are represented by triangles and a dashed line. […] In FIG. 2, on the X-axis, the log concentration of mebendazole in μM, indicated from -4 to 4 in units of 2. In FIG. 2, on the Y-axis, percent viability is shown, from 0 to 125 in units of 25.

[2] = tested on: SKOV-3 ovarian carcinoma cell line; test: MBZ cell viability IC50 (CellTiter Glo); type: cell-based; settings: Homo sapiens, SK-OV-3, 72 hours, 0-50 μM
Procedure: as §1

[3] = tested on: TOV-112D cells; test: MBZ cell viability IC50 (CellTiter Glo); type: cell-based; settings: Homo sapiens, TOV112D, 72 hours
Procedure: as §1

[4] = tested on: rare cancer tumor cell lines including neuroblastoma, rhabdomyosarcoma and Ewing sarcoma; test: MBZ cell viability IC50 across rare cancer tumor cell lines; type: cell-based; settings: several rare cancer tumor cell lines; 72 hours; read-out: IC50s (range over cell lines)
Procedure: The effect of mebendazole administration on cell lines derived from exemplary cancers was tested. One approach to determining the effectiveness of mebendazole in the treatment of cancer comprises in vitro testing. In this approach, cancer cell lines representative of the cancers of the disclosure are cultured in vitro according to standard techniques (see, for example, Human Cell Culture Protocols, Third Edition, […] R. D. Hughes, Editors, Humana Press, 2012), and increasing concentrations of mebendazole are administered to determine the IC50 value. As used herein, the term “IC50 value” refers to the concentration of a compound (for example mebendazole) wherein the response to that compound (such as inhibited cellular viability) is reduced by half. The IC50 is thus a measure of the effectiveness of a compound in inhibiting a biological process. […] Based on this biology, several rare cancer tumor cell lines including neuroblastoma, rhabdomyosarcoma and Ewing sarcoma were analyzed for sensitivity to MBZ treatment in vitro. […] In all cases, including those described below, the viable cells were determined using the CellTiter Glo® kit and an IC50 curve was generated using the PRISM software.

[5] = tested on: ACCX5M1 PDX tumors; test: ACC patient-derived xenograft (PDX) model, daily oral MBZ; type: in vivo, mice; settings: 50 or 200 mg/kg daily oral
Procedure: (§2) The effectiveness of mebendazole can be assayed in vivo using a patient derived xenograft mouse model. In patient derived xenograft mice, cancerous cells isolated from a cancer patient are implanted into an immunodeficient mouse, and allowed to form tumors. The mice are then administered mebendazole, and the effect on tumor size and mouse viability is assayed. As xenograft cancers can be implanted from a variety of patient sources, the effectiveness of mebendazole treatment on multiple cancers can be assayed in this manner. Human cancer cell lines such as those tested in vitro can similarly be used in mouse xenograft tumor models.
(§3) Despite a deepening understanding of the molecular events that lead to sustained tumor growth, there are currently no approved therapies for ACC. Identification of therapies for ACC has been hampered by the lack of ACC cell lines and transgenic mouse models. To circumvent these issues, the activity of MBZ was tested in several ACC patient-derived xenograft (PDX) models. Athymic nude mice were implanted subcutaneously with PDX tumors and treatment was initiated when tumors reached a size of 125-300 mm^3. Mice were randomized into three treatment groups to receive daily treatment with vehicle or MBZ at either 50 or 200 mg/kg for the duration of the study. Tumor size was measured twice weekly.

[6] = tested on: ACCX6 PDX tumors; test: as above; type: in vivo, mice; settings: for median survival: vehicle 42 days
Procedure: as §2, §3

[7] = tested on: ACCX9 PDX tumors; test: as above; type: in vivo, mice; settings: for median survival: vehicle 29.5 days
Procedure: as §2, §3

[8] = tested on: SNU16 gastric carcinoma cells; test: Synergy of MBZ or HA-PLGA-MBZ with chemotherapeutic agents (Chou-Talalay CI, Cell Titer Glo); type: cell-based; settings: SNU16 + 5-FU
Procedure: (§5) For in vitro experiments, cells were plated in triplicate and treated with a range of concentrations of MBZ and relevant chemotherapeutic agents in a complete Latin square.
(§6) Cells were plated in triplicate and treated with a range of 5 concentrations of MBZ in combination with 5 concentrations of chemotherapeutic agents in a complete Latin square. Following a 72 hour incubation, cell viability was determined using Cell Titer Glo.
(§7) In table 22 below, cells were plated in triplicate and treated with a range of 5 concentrations of MBZ or HA-PLGA-MBZ nanoparticles containing a molar equivalent of MBZ, and 5 concentrations of relevant chemotherapeutic agents in a complete Latin square. Combination indexes (CI) were determined based on the method described by Chou-Talalay with a CI value less than 0.9 indicating synergy. […] Numbers in parentheses represent the range of synergistic CI values for each cell line and drug combination.

[9] = tested on: PC12 pheochromocytoma/paraganglioma cell line; test: as above; type: cell-based; settings: PC12 + Vincristine
Procedure: as §5, §6, §7

[10] = tested on: gastric cancer primary cells isolated from patient-derived xenograft model GA0033; test: Ex vivo 3D assay, cell viability (Cell Titer Glo); type: cell-based; settings: 168 h, 3D culture, seven days
Procedure: (§4) To evaluate the efficacy of MBZ in an additional model system, an ex vivo 3D assay using gastric cancer primary cells isolated from two patient-derived xenograft models (A. GA0033 and B. GA3155) was performed. Cells were seeded in 3D cultures and treated for seven days with MBZ at nine different doses in triplicate. Cell viability was determined using Cell Titer Glo. An IC50 was established using the PRISM software.

[11] = tested on: gastric cancer primary cells isolated from patient-derived xenograft model GA3155; test: Ex vivo 3D assay, cell viability (Cell Titer Glo); type: cell-based; settings: 168 h, 3D culture, seven days
Procedure: as §4

[12] = both the 50 and 200 mg/kg dose levels

SMILES: COC(=O)Nc1nc2ccc(C(=O)c3ccccc3)cc2[nH]1 [MBZ, methyl N-(6-benzoyl-1H-benzimidazol-2-yl)carbamate]
- pIC50 [1]: 6.60
- pIC50 [2]: ~5.36
- pIC50 [3]: 6.70
- pIC50 [4]: 6.00 to 7.30
- tumor growth [5]: did not inhibit tumor growth
- median survival ([6]; 50 mg/kg daily oral): 95.5 days
- median survival ([6]; 200 mg/kg daily oral): 64.5 days
- tumor growth compared to vehicle [6, 12]: Inhibition of tumor growth
- tumor volume [6, 12]: decrease in tumor volume
- median survival ([7]; 50 mg/kg daily oral, not statistically significant): 33 days
- tumor volume ([7]; 200 mg/kg): decrease in tumor volume
- median survival ([7]; 200 mg/kg daily oral): 38 days
- anti-tumor activity ([7]; highest dose of 200 mg/kg): statistically significant anti-tumor activity
- range of synergistic CI values [8]: 0.223-0.837
- range of synergistic CI values [9]: Yes- (0.274-0.870)
- pIC50 [10]: 6.13
- pIC50 [11]: 6.12
